Read-outs that look alike come from different tables or passages of the source.
Biological target: T1, STAT6 (Homo sapiens, UniProt P42226)
T1 construct: endogenous in cells; host or cells: MOLM-16, KU-812, SKNO1, MB231, L1236
T1 sequence (P42226 1-847): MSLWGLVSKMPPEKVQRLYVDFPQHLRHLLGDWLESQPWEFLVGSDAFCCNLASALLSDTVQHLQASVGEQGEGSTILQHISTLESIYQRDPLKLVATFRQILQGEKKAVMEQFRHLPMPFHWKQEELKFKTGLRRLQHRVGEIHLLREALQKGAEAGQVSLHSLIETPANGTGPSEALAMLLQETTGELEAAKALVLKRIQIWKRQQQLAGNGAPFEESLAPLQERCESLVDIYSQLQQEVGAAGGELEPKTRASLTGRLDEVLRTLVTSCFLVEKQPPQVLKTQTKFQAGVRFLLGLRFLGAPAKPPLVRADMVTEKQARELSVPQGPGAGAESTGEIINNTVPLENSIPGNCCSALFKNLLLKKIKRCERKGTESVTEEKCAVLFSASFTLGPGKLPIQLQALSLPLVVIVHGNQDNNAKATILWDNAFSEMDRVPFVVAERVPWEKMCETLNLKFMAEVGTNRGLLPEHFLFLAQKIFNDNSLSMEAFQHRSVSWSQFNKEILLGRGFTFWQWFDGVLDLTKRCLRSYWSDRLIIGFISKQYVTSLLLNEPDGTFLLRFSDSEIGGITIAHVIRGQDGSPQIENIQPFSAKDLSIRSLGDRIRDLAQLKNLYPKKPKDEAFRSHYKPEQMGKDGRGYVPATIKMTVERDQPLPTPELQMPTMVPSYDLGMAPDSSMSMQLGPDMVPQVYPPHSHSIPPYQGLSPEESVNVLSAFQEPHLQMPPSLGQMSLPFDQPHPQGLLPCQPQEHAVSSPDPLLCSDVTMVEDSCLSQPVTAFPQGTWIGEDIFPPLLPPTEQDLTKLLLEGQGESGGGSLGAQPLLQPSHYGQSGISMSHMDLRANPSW
Test: Immunoblotting (Western blot) analysis of STAT6 degradation efficiency of degraders in treated cells
Type: cell-based
In short: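 ~1e6 cells/pt; cpd at indicated conc and duration; RIPA + protease/phosphatase inhibitors; BCA; 20-40 μg/lane Tris-glycine SDS-PAGE; PVDF; primary Ab 1:1000 o/n 4 °C; IRDye secondaries 1 h rt; infrared scan and densitometry; GAPDH loading ctrl.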

[1] = MOLM-16 cells, class symbols, read-out: DC50 S6 MOLM-16
[2] = L1236 cells, read-out: DC50 S6 L1236

Structure (SMILES) | DC50 [1] [µM] | DC50 [2] [µM]
CC(C)(C)[C@H](NC(=O)c1cc2cc(C(F)(F)P(=O)(O)O)ccc2s1)C(=O)N1CCN(C(=O)CC(=O)NCCC#Cc2ccc3c(c2)C(=O)N(C2CCC(=O)NC2=O)C3=O)C[C@H]1C(=O)N1CCO[C@H](c2ccccc2)C1 (stereo partly drawn) [Compound 510, ((2-(((2S)-1-((2S)-4-(3-((4-(2-(2,6-dioxopiperidin-3-yl)-1,3-dioxoisoindolin-5-yl)but-3-yn-1-yl)amino)-3-oxopropanoyl)-2-((R)-2-phenylmorpholine-4-carbonyl)piperazin-1-yl)-3,3-dimethyl-1-oxobutan-2-yl)carbamoyl)benzo[b]thiophen-5-yl)difluoromethyl)phosphonic acid] | > 10 | 
CC(C)(C)[C@H](NC(=O)c1cc2cc(C(F)(F)P(=O)(O)O)ccc2s1)C(=O)N1C[C@@H](OCC(=O)NCCCCC#Cc2ccc3c(c2)C(=O)N(C2CCC(=O)NC2=O)C3=O)C[C@H]1C(=O)N1CCC[C@H](c2ccccc2)C1 (stereo partly drawn) [Compound 500, ((2-(((2S)-1-((2S,4S)-4-(2-((6-(2-(2,6-dioxopiperidin-3-yl)-1,3-dioxoisoindolin-5-yl)hex-5-yn-1-yl)amino)-2-oxoethoxy)-2-((R)-3-phenylpiperidine-1-carbonyl)pyrrolidin-1-yl)-3,3-dimethyl-1-oxobutan-2-yl)carbamoyl)benzo[b]thiophen-5-yl)difluoromethyl)phosphonic acid] | > 10 | 
CC(C)(C)[C@H](NC(=O)c1cc2cc(C(F)(F)P(=O)(O)O)ccc2s1)C(=O)N1Cc2cc(OCC(=O)NCC#Cc3ccc4c(c3)C(=O)N(C3CCC(=O)NC3=O)C4=O)ccc2C[C@H]1C(=O)N1CCO[C@H](c2ccccc2)C1 (stereo partly drawn) [Compound 536, ((2-(((2S)-1-((3S)-7-(2-((3-(2-(2,6-dioxopiperidin-3-yl)-1,3-dioxoisoindolin-5-yl)prop-2-yn-1-yl)amino)-2-oxoethoxy)-3-((R)-2-phenylmorpholine-4-carbonyl)-3,4-dihydroisoquinolin-2(1H)-yl)-3,3-dimethyl-1-oxobutan-2-yl)carbamoyl)benzo[b]thiophen-5-yl)difluoromethyl)phosphonic acid] | 1 to 10 | 
Cc1ncsc1-c1ccc([C@H](C)NC(=O)[C@@H]2C[C@@H](O)CN2C(=O)[C@@H](NC(=O)CCCCCCCCNC(=O)CC(=O)N2CCN(C(=O)[C@@H](NC(=O)c3cc4cc(C(F)(F)P(=O)(O)O)ccc4s3)C(C)(C)C)[C@H](C(=O)N3CCC[C@H](c4ccccc4)C3)C2)C(C)(C)C)cc1 [Compound 459, (difluoro(2-(((S)-1-((S)-4-(3-((9-(((S)-1-((2S,4R)-4-hydroxy-2-(((S)-1-(4-(4-methylthiazol-5-yl)phenyl)ethyl)carbamoyl)pyrrolidin-1-yl)-3,3-dimethyl-1-oxobutan-2-yl)amino)-9-oxononyl)amino)-3-oxopropanoyl)-2-((R)-3-phenylpiperidine-1-carbonyl)piperazin-1-yl)-3,3-dimethyl-1-oxobutan-2-yl)carbamoyl)benzo[b]thiophen-5-yl)methyl)phosphonic acid] | > 10 | > 10
Cc1ncsc1-c1ccc([C@H](C)NC(=O)[C@@H]2C[C@@H](O)CN2C(=O)[C@@H](NC(=O)CCCCCNC(=O)COc2ccc3c(c2)CN(C(=O)[C@@H](NC(=O)c2cc4cc(C(F)(F)P(=O)(O)O)ccc4s2)C(C)(C)C)[C@H](C(=O)N2CCC[C@H](c4ccccc4)C2)C3)C(C)(C)C)cc1 [Compound 474, (difluoro(2-(((S)-1-((S)-7-(2-((6-(((S)-1-((2S,4R)-4-hydroxy-2-(((S)-1-(4-(4-methylthiazol-5-yl)phenyl)ethyl)carbamoyl)pyrrolidin-1-yl)-3,3-dimethyl-1-oxobutan-2-yl)amino)-6-oxohexyl)amino)-2-oxoethoxy)-3-((R)-3-phenylpiperidine-1-carbonyl)-3,4-dihydroisoquinolin-2(1H)-yl)-3,3-dimethyl-1-oxobutan-2-yl)carbamoyl)benzo[b]thiophen-5-yl)methyl)phosphonic acid] | > 10 | 
CC(C)(C)[C@H](NC(=O)c1cc2cc(C(F)(F)P(=O)(O)O)ccc2s1)C(=O)N1C[C@@H](OCC(=O)NCCCCCCCCC#Cc2cccc3c2C(=O)N(C2CCC(=O)NC2=O)C3=O)C[C@H]1C(=O)N1CCO[C@H](c2ccccc2)C1 (stereo partly drawn) [Compound 489, ((2-(((2S)-1-((2S,4S)-4-(2-((10-(2-(2,6-dioxopiperidin-3-yl)-1,3-dioxoisoindolin-4-yl)dec-9-yn-1-yl)amino)-2-oxoethoxy)-2-((R)-2-phenylmorpholine-4-carbonyl)pyrrolidin-1-yl)-3,3-dimethyl-1-oxobutan-2-yl)carbamoyl)benzo[b]thiophen-5-yl)difluoromethyl)phosphonic acid] | > 10 | 
CC(C)(C)[C@H](NC(=O)c1cc2cc(C(F)(F)P(=O)(O)O)ccc2s1)C(=O)N1Cc2cc(OCC(=O)NCCCCCCCCC#Cc3ccc4c(c3)C(=O)N(C3CCC(=O)NC3=O)C4=O)ccc2C[C@H]1C(=O)N1CCC[C@H](c2ccccc2)C1 (stereo partly drawn) [Compound 560, ((2-(((2S)-1-((3S)-7-(2-((10-(2-(2,6-dioxopiperidin-3-yl)-1,3-dioxoisoindolin-5-yl)dec-9-yn-1-yl)amino)-2-oxoethoxy)-3-((R)-3-phenylpiperidine-1-carbonyl)-3,4-dihydroisoquinolin-2(1H)-yl)-3,3-dimethyl-1-oxobutan-2-yl)carbamoyl)benzo[b]thiophen-5-yl)difluoromethyl)phosphonic acid] | > 10 | 
Cc1ncsc1-c1ccc([C@H](C)NC(=O)[C@@H]2C[C@@H](O)CN2C(=O)[C@@H](NC(=O)CCCCCCCCCNC(=O)COc2ccc3c(c2)CN(C(=O)[C@@H](NC(=O)c2cc4cc(C(F)(F)P(=O)(O)O)ccc4s2)C(C)(C)C)[C@H](C(=O)N2CCO[C@H](c4ccccc4)C2)C3)C(C)(C)C)cc1 [Compound 469, (difluoro(2-(((S)-1-((S)-7-(2-((10-(((S)-1-((2S,4R)-4-hydroxy-2-(((S)-1-(4-(4-methylthiazol-5-yl)phenyl)ethyl)carbamoyl)pyrrolidin-1-yl)-3,3-dimethyl-1-oxobutan-2-yl)amino)-10-oxodecyl)amino)-2-oxoethoxy)-3-((R)-2-phenylmorpholine-4-carbonyl)-3,4-dihydroisoquinolin-2(1H)-yl)-3,3-dimethyl-1-oxobutan-2-yl)carbamoyl)benzo[b]thiophen-5-yl)methyl)phosphonic acid] | > 10 | > 10
Cc1ncsc1-c1ccc([C@H](C)NC(=O)[C@@H]2C[C@@H](O)CN2C(=O)[C@@H](NC(=O)CCCCCCCNC(=O)CO[C@H]2C[C@@H](C(=O)N3CCO[C@H](c4ccccc4)C3)N(C(=O)[C@@H](NC(=O)c3cc4cc(C(F)(F)P(=O)(O)O)ccc4s3)C(C)(C)C)C2)C(C)(C)C)cc1 [Compound 431, (difluoro(2-(((S)-1-((2S,4S)-4-(2-((8-(((S)-1-((2S,4R)-4-hydroxy-2-(((S)-1-(4-(4-methylthiazol-5-yl)phenyl)ethyl)carbamoyl)pyrrolidin-1-yl)-3,3-dimethyl-1-oxobutan-2-yl)amino)-8-oxooctyl)amino)-2-oxoethoxy)-2-((R)-2-phenylmorpholine-4-carbonyl)pyrrolidin-1-yl)-3,3-dimethyl-1-oxobutan-2-yl)carbamoyl)benzo[b]thiophen-5-yl)methyl)phosphonic acid] | > 10 | > 10
CC(C)(C)[C@H](NC(=O)c1cc2cc(C(F)(F)P(=O)(O)O)ccc2s1)C(=O)N1CCN(C(=O)CC(=O)NCCCCCCCCCC#Cc2cccc3c2C(=O)N(C2CCC(=O)NC2=O)C3=O)C[C@H]1C(=O)N1CCC[C@H](c2ccccc2)C1 (stereo partly drawn) [Compound 533, ((2-(((2S)-1-((2S)-4-(3-((11-(2-(2,6-dioxopiperidin-3-yl)-1,3-dioxoisoindolin-4-yl)undec-10-yn-1-yl)amino)-3-oxopropanoyl)-2-((R)-3-phenylpiperidine-1-carbonyl)piperazin-1-yl)-3,3-dimethyl-1-oxobutan-2-yl)carbamoyl)benzo[b]thiophen-5-yl)difluoromethyl)phosphonic acid] | > 10 | 
CC(C)(C)[C@H](NC(=O)c1cc2cc(C(F)(F)P(=O)(O)O)ccc2s1)C(=O)N1CCN(C(=O)CC(=O)NCCCCCC#Cc2ccc3c(c2)C(=O)N(C2CCC(=O)NC2=O)C3=O)C[C@H]1C(=O)N1CCO[C@H](c2ccccc2)C1 (stereo partly drawn) [Compound 516, ((2-(((2S)-1-((2S)-4-(3-((7-(2-(2,6-dioxopiperidin-3-yl)-1,3-dioxoisoindolin-5-yl)hept-6-yn-1-yl)amino)-3-oxopropanoyl)-2-((R)-2-phenylmorpholine-4-carbonyl)piperazin-1-yl)-3,3-dimethyl-1-oxobutan-2-yl)carbamoyl)benzo[b]thiophen-5-yl)difluoromethyl)phosphonic acid] | > 10 | 

Reference: patent publication US20230295197A1, “STAT5 and STAT6 Degraders and Uses Thereof” (REGENTS OF THE UNIVERSITY OF MICHICAN, priority 2022, published 2023)
